The text below walks through data of patent US20170189507A1, “NOVEL PEPTIDES AND COMBINATION OF PEPTIDES FOR USE IN IMMUNOTHERAPY AGAINST VARIOUS CANCERS” (immatics biotechnologies GmbH, priority 2015, published 2017).

One experiment has as its target HLA-A*02 (Homo sapiens, UniProt P04439, D140Y/D185E/D98H/E176V/E277Q/G131W/G231S/I119V/I121R/I166T/I218V/N151K/N90K/P208A/P217A/Q86G/Q94H/R138H/R169H). Description: MHC binding assay (UV-ligand exchange, beta2m ELISA), HLA-A*02. Conditions: MHC class I binding score, peptide exchange yield. An excerpt:
(§1) Candidate peptides for T cell based therapies according to the present invention were further tested for their MHC binding capacity (affinity). The individual peptide-MHC complexes were produced by UV-ligand exchange, where a UV-sensitive peptide is cleaved upon UV-irradiation, and exchanged with the peptide of interest as analyzed. Only peptide candidates that can effectively bind and stabilize the peptide-receptive MHC molecules prevent dissociation of the MHC complexes. To determine the yield of the exchange reaction, an ELISA was performed based on the detection of the light chain ([…] of stabilized MHC complexes. The assay was performed as generally described in Rodenko et al. (Rodenko et al., 2006).
(§2) 96 well MAXISorp plates (NUNC) were coated over night with 2 ug/ml streptavidin in PBS at room temperature, washed 4× and blocked for 1 h at 37° C. in 2% BSA containing blocking buffer. Refolded HLA-A*02:01/MLA-001 monomers served as standards, covering the range of 15-500 ng/ml. Peptide-MHC monomers of the UV-exchange reaction were diluted 100 fold in blocking buffer. Samples were incubated for 1 h at 37° C., washed four times, incubated with 2 ug/ml HRP conjugated anti-β2m for 1 h at 37° C., washed again and detected with TMB solution that is stopped with […]. Absorption was measured at 450 nm. Candidate peptides that show a high exchange yield (preferably higher than 50%, most preferred higher than 75%) are generally preferred for a generation and production of antibodies or fragments thereof, and/or T cell receptors or fragments thereof, as they show sufficient avidity to the MHC molecules and prevent dissociation of the MHC complexes.

In a further experiment the test system is HLA-A*24. The experiment in a line: MHC binding assay (UV-ligand exchange, beta2m ELISA), HLA-A*24. The arrangement: species or system human. The conditions noted are these: MHC class I binding score, peptide exchange yield.
From the text: as §1, §2

The subject of the next experiment is CD8+ T cells. The experiment in a line: In vitro immunogenicity: T-cell priming with aAPCs loaded with peptide/MHC complexes and anti-CD28 antibody, pMHC multimer readout. Type of experiment: cell-based, human. The conditions noted are these: for Wells positive [%]: in vitro immunogenicity of HLA class I peptides, peptide-specific multimer+ wells after aAPC priming of CD8+ T cells; for Wells (in vitro immunogenicity of HLA class I peptides): CD8+ T cells of healthy donors, three stimulation cycles, multimer staining, Table 19A. Here is the method:
In an aspect, the peptides are pre-screened for immunogenicity before being included in the warehouse. By way of example, and not limitation, the immunogenicity of the peptides included in the warehouse is determined by a method comprising in vitro T-cell priming through repeated stimulations of CD8+ T cells from healthy donors with artificial antigen presenting cells loaded with peptide/MHC complexes and anti-CD28 antibody.
In order to obtain information regarding the immunogenicity of the TUMAPs of the present invention, the inventors performed investigations using an in vitro T-cell priming assay based on repeated stimulations of CD8+ T cells with artificial antigen presenting cells (aAPCs) loaded with peptide/MHC complexes and anti-CD28 antibody.
In order to perform in vitro stimulations by artificial antigen presenting cells loaded with peptide-MHC complex (pMHC) and anti-CD28 antibody, the inventors first isolated CD8+ T cells from fresh HLA-A*02 leukapheresis products via positive selection using CD8 microbeads (Miltenyi Biotec, Bergisch-Gladbach, Germany) of healthy donors obtained from the University clinics Mannheim, Germany, after informed consent.
PBMCs and isolated CD8+ lymphocytes were incubated in T-cell medium (TCM) until use consisting of RPMI-Glutamax (Invitrogen, Karlsruhe, Germany) supplemented with 10% heat inactivated human AB serum (PAN-Biotech, Aidenbach, Germany), 100 U/ml Penicillin/100 μg/ml Streptomycin (Cambrex, Cologne, Germany), 1 mM sodium pyruvate (CC Pro, Oberdorla, Germany), 20 μg/ml Gentamycin (Cambrex). 2.5 ng/ml IL7 (PromoCell, Heidelberg, Germany) and 10 U/ml IL-2 (Novartis Pharma, Nurnberg, Germany) were also added to the TCM at this step.
Generation of pMHC/anti-CD28 coated beads, T-cell stimulations and readout was performed in a highly defined in vitro system using four different pMHC molecules per stimulation condition and 8 different pMHC molecules per readout condition.
The purified co-stimulatory mouse IgG2a anti human CD28 Ab 9.3 (Jung et al., 1987) was chemically biotinylated using Sulfo-N-hydroxysuccinimidobiotin as recommended by the manufacturer (Perbio, Bonn, Germany). Beads used were 5.6 μm diameter streptavidin coated polystyrene particles (Bangs Laboratories, Illinois, USA).
pMHC used for positive and negative control stimulations were A*0201/MLA-001 (peptide […] (SEQ ID NO. 303) from modified Melan-A/MART-1) and A*0201/DDX5-001 ([…] from DDX5, SEQ ID NO. 304), respectively.
800.000 beads/200 μl were coated in 96-well plates in the presence of 4×12.5 ng different biotin-pMHC, washed and 600 ng biotin anti-CD28 were added subsequently in a volume of 200 μl. Stimulations were initiated in 96-well plates by co-incubating […] CD8+ T cells with 2×10^5 washed coated beads in 200 μl TCM supplemented with 5 ng/ml IL-12 (PromoCell) for 3 days at 37° C. Half of the medium was then exchanged by fresh TCM supplemented with 80 U/ml IL-2 and incubating was continued for 4 days at 37° C. This stimulation cycle was performed for a total of three times. For the pMHC multimer readout using 8 different pMHC molecules per condition, a twodimensional combinatorial coding approach was used as previously described (Andersen et al., 2012) with minor modifications encompassing coupling to 5 different fluorochromes. Finally, multimeric analyses were performed by staining the cells with Live/dead near IR dye (Invitrogen, Karlsruhe, Germany), CD8-FITC antibody clone SK1 (BD, Heidelberg, Germany) and fluorescent pMHC multimers. For analysis, a BD LSRII SORP cytometer equipped with appropriate lasers and filters was used. Peptide specific cells were calculated as percentage of total CD8+ cells. Evaluation of multimeric analysis was done using the FlowJo software (Tree Star, Oregon, USA). In vitro priming of specific multimer+ CD8+ lymphocytes was detected by comparing to negative control stimulations.

In the case of “51 (LLFSRLCGA; listed as Homo sapiens) [compound 51]”, the Peptide exchange entry with HLA-A*02 was “++++ (>=75% = ++++)”.
Still for that read-out and setting: under “129 (RLQDILWFL; listed as Homo sapiens) [compound 129]” stands “++++ (>=75% = ++++)”.
As to “159 (LYNKGFIYL; listed as Homo sapiens) [compound 159]”, the Peptide exchange entry in the experiment on HLA-A*24 is recorded as “++++ (>=75% = ++++)”. In addition, in the experiment on CD8+ T cells, the “Wells positive [%]” value is on record as “++++ (>=70% = ++++)”.
For “3 (KLEENGDLYL; listed as Homo sapiens) [compound 3]”, the Peptide exchange result in the experiment with HLA-A*02 is “++++ (>=75% = ++++)”.
With “301 (AYKPGALTF; listed as Homo sapiens) [compound 301]”, the “Wells (in vitro immunogenicity of HLA class I peptides)” value with CD8+ T cells is recorded as “+ (<20% = +)”.
On to “5 (GIVAHIQEV; listed as Homo sapiens) [compound 5]”, for which, in the experiment on CD8+ T cells, the “Wells positive [%]” value was “+ (<20% = +)”.
Take “125 (SLADYEHFV; listed as Homo sapiens) [compound 125]”: the Peptide exchange entry with HLA-A*02 is given as “++++ (>=75% = ++++)”.
Turning to “229 (AILAHLNTV; listed as Homo sapiens) [compound 229]”, the Peptide exchange result in the experiment with HLA-A*02 was “++++ (>=75% = ++++)”.
Still for that read-out and setting: under “126 (QMFQYFITV; listed as Homo sapiens) [compound 126]” stands “++++ (>=75% = ++++)”.
For “268 (QYLGQIQHI; listed as Homo sapiens) [compound 268]”, the “Wells positive [%]” value in the experiment on CD8+ T cells was “+ (<20% = +)”.
Regarding “133 (ALLPRLHQL; listed as Homo sapiens) [compound 133]”, the Peptide exchange entry with HLA-A*02 was “++++ (>=75% = ++++)”.
On the same count and under the same terms, under “153 (FISERVEVV; listed as Homo sapiens) [compound 153]” stands “++++ (>=75% = ++++)”.
Consider “230 (KLQNIMMLL; listed as Homo sapiens) [compound 230]”, for which, in the experiment on CD8+ T cells, the “Wells positive [%]” value is given as “++++ (>=70% = ++++)”.
As to “298 (RYLEGTSCI; listed as Homo sapiens) [compound 298]”, the “Wells (in vitro immunogenicity of HLA class I peptides)” value in the experiment with CD8+ T cells is listed as “+ (<20% = +)”.
For “248 (YLDRFLAGV; listed as Homo sapiens) [compound 248]”, the Peptide exchange result with HLA-A*02 is listed as “++++ (>=75% = ++++)”.
For the substance “31 (TITETTVEV; listed as Homo sapiens) [compound 31]”, in the experiment with CD8+ T cells, the “Wells positive [%]” value was “+ (<20% = +)”.
The same measure, in the same setting: under “207 (AYVVFVSTL; listed as Homo sapiens) [compound 207]” stands “+ (<20% = +)”; under “197 (EYSLFPGQVVI; listed as Homo sapiens) [compound 197]”, “+ (<20% = +)”.
On to “1 (LLYPEPWSV; listed as Homo sapiens) [compound 1]”, for which the Peptide exchange entry in the experiment with HLA-A*02 is given as “++++ (>=75% = ++++)”.
Regarding “18 (ILLDLTDNRL; listed as Homo sapiens) [compound 18]”, the “Wells positive [%]” value in the experiment on CD8+ T cells is reported as “+ (<20% = +)”.
“257 (GLYTDPCGV; listed as Homo sapiens) [compound 257]”: the Peptide exchange entry with HLA-A*02 is “++++ (>=75% = ++++)”.
The same measure, in the same setting: under “34 (FLLATEVVTV; listed as Homo sapiens) [compound 34]” stands “++++ (>=75% = ++++)”; under “245 (SLLDLPLSL; listed as Homo sapiens) [compound 245]”, “++++ (>=75% = ++++)”.
Regarding “167 (NYINRILKL; listed as Homo sapiens) [compound 167]”, the Peptide exchange entry with HLA-A*24 is “++++ (>=75% = ++++)”. In addition, in the experiment with CD8+ T cells, the “Wells positive [%]” value is “+ (<20% = +)”.
For “285 (HYPPVQVLF; listed as Homo sapiens) [compound 285]”, the “Wells positive [%]” value in the experiment with CD8+ T cells was “+ (<20% = +)”.
In the case of “16 (YTLDIPVLFGV; listed as Homo sapiens) [compound 16]”, in the experiment with HLA-A*02, the Peptide exchange result is recorded as “++++ (>=75% = ++++)”.
Same read-out and setting: the same measure for “147 (YLMDDTVEI; listed as Homo sapiens) [compound 147]”: “++++ (>=75% = ++++)”.
On to “165 (DYTTWTALL; listed as Homo sapiens) [compound 165]”, for which the Peptide exchange entry with HLA-A*24 is “++++ (>=75% = ++++)”. Besides, the “Wells positive [%]” value with CD8+ T cells was “+ (<20% = +)”.
With “112 (SLGKFTFDV; listed as Homo sapiens) [compound 112]”, the Peptide exchange entry with HLA-A*02 is “++++ (>=75% = ++++)”.
With “149 (ILNTHITEL; listed as Homo sapiens) [compound 149]”, in the experiment on CD8+ T cells, the “Wells positive [%]” value is listed as “+ (<20% = +)”.
Take “300 (AYVLRLETL; listed as Homo sapiens) [compound 300]”: the “Wells (in vitro immunogenicity of HLA class I peptides)” value in the experiment on CD8+ T cells is “+ (<20% = +)”.
Regarding “269 (YFIDSTNLKTHF; listed as Homo sapiens) [compound 269]”, the “Wells positive [%]” value in the experiment on CD8+ T cells is reported as “+ (<20% = +)”.
Same read-out and setting: the same measure for “26 (ALQEELTEL; listed as Homo sapiens) [compound 26]”: “+ (<20% = +)”.
Regarding “120 (VTPVTVSAV; listed as Homo sapiens) [compound 120]”, the Peptide exchange result in the experiment with HLA-A*02 is “+ (<20% = +)”.
As for “158 (HYSQELSLLYL; listed as Homo sapiens) [compound 158]”, in the experiment with HLA-A*24, the Peptide exchange entry is on record as “++++ (>=75% = ++++)”. The “Wells positive [%]” value in the experiment with CD8+ T cells was “+ (<20% = +)”.
“100 (ALLGMIIVGV; listed as Homo sapiens) [compound 100]”: the Peptide exchange entry with HLA-A*02 is listed as “+ (<20% = +)”.
“292 (GMMTAILGV; listed as Homo sapiens) [compound 292]”: in the experiment with CD8+ T cells, the “Wells (in vitro immunogenicity of HLA class I peptides)” value is listed as “+ (<20% = +)”.
Take “42 (LLDSVSRL; listed as Homo sapiens) [compound 42]”: the Peptide exchange entry with HLA-A*02 is listed as “+ (<20% = +)”.
“163 (DYLKGLASF; listed as Homo sapiens) [compound 163]”: the Peptide exchange entry in the experiment on HLA-A*24 is listed as “++++ (>=75% = ++++)”. Further, in the experiment on CD8+ T cells, the “Wells positive [%]” value is listed as “+ (<20% = +)”.
As for “14 (ILAKDLFEI; listed as Homo sapiens) [compound 14]”, in the experiment with HLA-A*02, the Peptide exchange result is recorded as “++++ (>=75% = ++++)”.
Turning to “204 (TYELRYFQI; listed as Homo sapiens) [compound 204]”, in the experiment with HLA-A*24, the Peptide exchange result is “++++ (>=75% = ++++)”. The “Wells positive [%]” value in the experiment with CD8+ T cells was “+ (<20% = +)”.
As to “218 (YYKSTSSAF; listed as Homo sapiens) [compound 218]”, the “Wells positive [%]” value with CD8+ T cells is given as “+ (<20% = +)”.
